Consider 30 molecules from patent US10478425B2, “5-phenylazaindole derivative having AMPK-activating activity” (Shionogi & Co., Ltd., priority 2016, dated 2019).

This experiment concerns the target T1, Human AMPK α2β2γ1 (Homo sapiens, UniProt O43741+P54646).
T1 construct: The full length cDNAs of human AMPK β2 (NM_005399.3) and human AMPK α2 (NM_006252.3); The full length cDNAs of human AMPK β2 (NM_005399.3); the full length cDNA of human AMPK γ1 (NM_002733.3) had been inserted into pET28b(+); 6×His (N); made in house; host or cells: Escherichia coli BL21 CodonPlus (DE3)-RIL
The experiment is described as follows: Test Example 2: activation of phosphorylated human AMPK α2β2γ1 (mobility-shift kinase assay, FL-Peptide 7). It counts as biochemical. As to conditions: for EC150: compound concentration showing 150% relative to the control (100%), human AMPK α2β2γ1 phosphorylated with CaMKK2; for Emax: maximum rate of increase in activity within the measurement range, control = 100%, read-out: Emax. As for the experimental part:
The full length cDNAs of human AMPK β2 (NM_005399.3) and human AMPK α2 (NM_006252.3) were inserted into the MCS1 and MCS2 of the pETDuet-1 vector to prepare a human AMPK β2 and human AMPK α2 (6×His tag at the 5′ terminus) expressing plasmid. The plasmid was cotransfected with an expression plasmid, in which the full length cDNA of human AMPK γ1 (NM_002733.3) had been inserted into pET28b(+), into BL21 CodonPlus (DE3)-RIL to obtain an expression strain. The expression strain was cultured in TB medium, followed by induction with 0.5 mM IPTG, and cultured at 25° C. for 3 hours and then harvested. After ultrasonication, supernatant was collected and applied to Histrap FF column (GE) and RESOUECE Q column (GE) to prepare 12.5 mg of purified sample containing three types of subunit from 1.8 L of broth.
An expression vector, in which the full length cDNA of human CAMKK β (NM_172226.1) had been inserted into pGEX-6P-3, was transfected into BL21 Star (DE3). The expression strain was cultured in TB medium, followed by induction with 0.5 mM IPTG, and cultured at 25° C. for 3 hours and then harvested. After ultrasonication, supernatant was collected and applied to GSTrap FF column (GE) to prepare 14 mg of GST-fused CAMKK β from 720 ml of broth.
Thus, phosphorylation treatment was carried out as pretreatment.
Human AMPK α2β2γ1 in an amount to give a conversion rate of approximately 10% by reaction for 2 hours, and CaMKK2 in an amount capable of sufficiently imparting activity to AMPK for one hour were mixed in a buffer solution consisting of a 50 mM HEPES-NaOH buffer solution (pH 7.0), 100 mM NaCl, 5 mM magnesium chloride, 0.1% bovine serum albumin, 0.2 mM sodium orthovanadate(V), 1 mM ethylene glycol-bis(2-aminoethyl ether)-N,N,N′,N′-tetraacetic acid (EGTA), 5 mM disodium β-glycerophosphate, 1 mM dithiothreitol and 0.2 mM ATP, and the resulting liquid was left to stand at 25° C. for 1 to 1.5 hours to sufficiently phosphorylate AMPK.
After that, to the enzyme liquid, which had been subjected to phosphorylation treatment, a compound dissolved in DMSO was added so as to have a 1% DMSO concentration. The resulting liquid was left to stand for 10 minutes.
To the liquid, a substrate solution consisting of a 50 mM HEPES-NaOH buffer solution (pH 7.0), 100 mM NaCl, 10 mM magnesium chloride, 0.1% bovine serum albumin, 0.2 mM sodium orthovanadate(V), 1 mM ethylene glycol-bis(2-aminoethyl ether)-N,N,N′,N′-tetraacetic acid (EGTA), 5 mM disodium β-glycerophosphate, 2 mM dithiothreitol, 0.4 mM ATP and 3 μM FL-Peptide 7 (manufactured by Caliper Life Sciences, Inc.) was added in equal amount (10 μl in total). The resulting liquid was allowed to react at 25° C. for 2 hours, then 10 μl of 20 mM EDTA was added thereto to stop the reaction.
To detect phosphorylated fluorescent substrates, the reaction mixture was applied to a measuring device, LabChip EZ Reader II manufactured by Caliper Life Science, Inc., for detecting fluorescence by using differences in mobility due to differences in charge. The setting conditions for the device were pressure, −1.5 PSI; upstream voltage, −2250 V; downstream voltage, −400 V; post sample buffer sip time, 40 seconds; final delay, 120 seconds; and peak order, Product First.
A conversion rate was calculated from the peak heights of the obtained substrate and product. The conversion rate when not containing a compound was used as a control, and a concentration dependent curve was made by plotting the rate of increase in activity to the control at each concentration of a compound.

T1 sequence (P54646 whole entry): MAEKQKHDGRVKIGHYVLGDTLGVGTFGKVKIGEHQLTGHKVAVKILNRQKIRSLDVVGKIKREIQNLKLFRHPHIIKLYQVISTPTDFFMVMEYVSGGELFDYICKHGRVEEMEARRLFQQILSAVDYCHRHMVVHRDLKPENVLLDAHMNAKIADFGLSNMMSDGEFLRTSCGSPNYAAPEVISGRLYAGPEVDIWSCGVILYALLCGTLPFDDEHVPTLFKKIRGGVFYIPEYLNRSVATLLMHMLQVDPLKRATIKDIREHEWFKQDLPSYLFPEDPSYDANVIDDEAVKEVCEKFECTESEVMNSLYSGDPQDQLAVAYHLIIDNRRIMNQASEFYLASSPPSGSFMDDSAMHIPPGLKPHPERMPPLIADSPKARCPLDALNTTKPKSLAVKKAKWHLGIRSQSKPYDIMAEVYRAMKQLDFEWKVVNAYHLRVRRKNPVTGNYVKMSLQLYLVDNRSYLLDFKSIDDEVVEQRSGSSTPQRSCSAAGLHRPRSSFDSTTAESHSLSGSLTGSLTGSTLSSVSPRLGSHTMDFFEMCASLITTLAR
T1 sequence (O43741 whole entry): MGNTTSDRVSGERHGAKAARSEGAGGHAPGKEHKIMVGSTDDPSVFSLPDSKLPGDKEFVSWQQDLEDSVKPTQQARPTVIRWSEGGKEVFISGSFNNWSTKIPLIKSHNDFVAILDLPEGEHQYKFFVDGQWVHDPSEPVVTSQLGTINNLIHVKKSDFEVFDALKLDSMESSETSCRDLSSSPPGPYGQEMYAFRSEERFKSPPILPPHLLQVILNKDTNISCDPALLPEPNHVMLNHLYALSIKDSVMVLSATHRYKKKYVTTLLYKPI
T1 sequence (P54619 whole entry partner): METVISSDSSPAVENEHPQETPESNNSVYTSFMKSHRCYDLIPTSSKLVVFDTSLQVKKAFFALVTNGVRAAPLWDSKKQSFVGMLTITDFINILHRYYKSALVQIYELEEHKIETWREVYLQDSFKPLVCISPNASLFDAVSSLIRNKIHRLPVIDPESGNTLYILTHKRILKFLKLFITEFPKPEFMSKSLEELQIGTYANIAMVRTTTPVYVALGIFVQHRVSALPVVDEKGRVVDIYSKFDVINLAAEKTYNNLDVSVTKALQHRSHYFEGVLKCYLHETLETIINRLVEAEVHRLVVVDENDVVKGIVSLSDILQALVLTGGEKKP

By Emax is commonly meant the greatest response seen or fitted, relative to the assay's reference. On to `CS(C)(=O)=Nc1ccc(-c2ccc(-c3nc4cc(O[C@@H]5CO[C@H](CO)[C@H]5F)[nH]c4cc3F)cc2)cc1` [Compound I-2-42], for which the EC150 is listed as 2.6 nM and the maximal response (Emax) was found to be 647%.

With `O[C@@H]1CO[C@H]2[C@@H]1OC[C@H]2Oc1cc2nc(-c3ccc(N4CCC(OC5CCNCC5)CC4)cc3)c(F)cc2[nH]1` [Compound I-2-62], the EC150 is recorded as 47 nM and the Emax is 514%.

With `CS(C)(=O)=Nc1ccc(-c2ccc(-c3nc4cc(O[C@H]5CO[C@H](CO)[C@@H](O)C5)[nH]c4cc3F)cc2)cc1` [Compound I-1-04], the EC150 amounted to 6.2 nM and the Emax was 332%.

Take `CS(C)(=O)=NC1CC=C(c2ccc(-c3nc4cc(O[C@@H]5CO[C@H](CO)C5)[nH]c4cc3F)cc2)CC1` (stereo partly drawn) [Compound I-2-73]: the EC150 came out at 4.2 nM and the Emax turned out to be 681%.

For `O[C@@H]1CO[C@H]2[C@@H]1OC[C@H]2Oc1cc2nc(-c3ccc(C4=CCN(C5=NCCO5)CC4)cc3)c(F)cc2[nH]1` [Compound I-1-51], the EC150 came to 12 nM and the Emax came out at 486%.

On to `CS(=O)(=O)Nc1ccc(-c2ccc(-c3nc4cc(O[C@@H]5CO[C@H]6[C@@H]5OC[C@H]6O)[nH]c4cc3F)cc2)cc1` [Compound I-1-53], for which the EC150 is 1.6 nM and the Emax stood at 533%.

For `CCOC(=O)N[C@H]1CC[C@H](c2ccc(-c3nc4cc(O[C@@H]5CO[C@H]6[C@@H]5OC[C@H]6O)[nH]c4cc3F)cc2)CC1` [Compound I-1-14], the EC150 came to 24 nM and the Emax is 513%.

For `O=C(c1ccc(-c2ccc(-c3nc4cc(O[C@@H]5CO[C@H](CO)C5)[nH]c4cc3F)cc2)cc1)N1CCCC1` [Compound I-2-49], the EC150 came to 0.88 nM and the Emax stood at 684%.

In the case of `O[C@@H]1CO[C@H]2[C@@H]1OC[C@H]2Oc1cc2nc(-c3ccc(-c4ccc(Oc5cccnc5)cc4)cc3)c(F)cc2[nH]1` [Compound I-2-36], the EC150 is given as 43 nM and the Emax is 385%.

Regarding `CS(C)(=O)=Nc1ccc(-c2ccc(-c3nc4cc(O[C@H]5CCOC5)[nH]c4cc3Cl)cc2)cc1` [Compound I-1-01], the EC150 is 24 nM and the Emax was determined as 282%.

For the molecule `CNC(=O)COc1ccc(-c2ccc(-c3nc4cc(O[C@@H]5CO[C@H]6[C@@H]5OC[C@H]6O)[nH]c4cc3F)cc2)cc1` [Compound I-2-47], the EC150 worked out at 2.2 nM and the Emax amounted to 635%.

In the case of `COC(=O)NC1CCN(c2ccc(-c3nc4cc(O[C@@H]5CO[C@H](CO)C5)[nH]c4cc3F)cc2)CC1` [Compound I-1-03], the EC150 worked out at 9.8 nM and the maximum response (Emax) is 556%.

Consider `O=C1OCCN1c1ccc(-c2ccc(-c3nc4cc(O[C@@H]5CO[C@H]6[C@@H]5OC[C@H]6O)[nH]c4cc3F)cc2)cc1` [Compound I-2-41], for which the EC150 was determined as 0.8 nM and the Emax was 634%.

Turning to `CCOC(=O)NC1CCN(c2ccc(-c3nc4cc(O[C@@H]5CO[C@H]6[C@@H]5OC[C@H]6O)[nH]c4cc3F)cc2)CC1` [Compound I-1-10], the EC150 came to 13 nM and the maximum response (Emax) is 490%.

`O=C(C1CCN(c2ccc(-c3nc4cc(O[C@@H]5CO[C@H]6[C@@H]5OC[C@H]6O)[nH]c4cc3F)cc2)CC1)N1CCCC1` [Compound I-2-44]: the EC150 amounted to 35 nM and the maximum response (Emax) was determined as 661%.

Consider `COCCOC1CCN(c2ccc(-c3nc4cc(O[C@@H]5CO[C@H]6[C@@H]5OC[C@H]6O)[nH]c4cc3F)cc2)C1` (stereo partly drawn) [Compound I-1-62], for which the EC150 came out at 21 nM and the maximal effect (Emax) is 392%.

For `CNC(=O)c1ccc(-c2ccc(-c3nc4cc(O[C@@H]5CO[C@H]6[C@@H]5OC[C@H]6O)[nH]c4cc3F)cc2)cc1` [Compound I-1-55], the EC150 stood at 0.34 nM and the maximal effect (Emax) is 431%.

`CO[C@H]1[C@@H](CO)OC[C@H]1Oc1cc2nc(-c3ccc(-c4ccc(N=S(C)(C)=O)cc4)cc3)c(F)cc2[nH]1` [Compound I-2-26]: the EC150 was 8.6 nM and the maximal response (Emax) was found to be 298%.

In the case of `COCCOc1ccc(-c2ccc(-c3nc4cc(O[C@@H]5CO[C@H]6[C@@H]5OC[C@H]6O)[nH]c4cc3F)cc2)nc1` [Compound I-2-52], the EC150 is given as 7.2 nM and the maximal response (Emax) came to 532%.

`O[C@@H]1CO[C@H]2[C@@H]1OC[C@H]2Oc1cc2nc(-c3ccc(C#CC4CCNCC4)cc3)c(F)cc2[nH]1` [Compound I-2-64]: the EC150 was determined as 16 nM and the Emax was determined as 536%.

`O=C(c1ccc(-c2ccc(-c3nc4cc(O[C@@H]5CO[C@H]6[C@@H]5OC[C@H]6O)[nH]c4cc3F)cc2)cc1)N1CCCC1` [Compound I-1-09]: the EC150 was found to be 4.8 nM and the maximal effect (Emax) turned out to be 475%.

For `O=C(c1ccc(-c2ccc(-c3nc4cc(O[C@@H]5CO[C@H](CO)C5(F)F)[nH]c4cc3F)cc2)cc1)N1CCOCC1` [Compound I-2-97], the EC150 is reported as 4.6 nM and the maximal response (Emax) stood at 527%.

Turning to `COCCS(=N)(=O)c1ccc(-c2ccc(-c3nc4cc(O[C@@H]5CO[C@H]6[C@@H]5OC[C@H]6O)[nH]c4cc3F)cc2)cc1` (stereo partly drawn) [Compound I-2-96], the EC150 stood at 2.9 nM and the maximum response (Emax) came to 631%.

In the case of `CC(=O)N[C@H]1CC[C@H](c2ccc(-c3nc4cc(O[C@@H]5CO[C@H]6[C@@H]5OC[C@H]6O)[nH]c4cc3F)cc2)CC1` [Compound I-1-41], the EC150 was found to be 7.8 nM and the maximal effect (Emax) was 562%.

For the molecule `O[C@@H]1CO[C@H]2[C@@H]1OC[C@H]2Oc1cc2nc(-c3ccc(-c4ccc(NC5=NCCO5)cc4)cc3)c(F)cc2[nH]1` [Compound I-1-61], the EC150 came out at 2.3 nM and the maximal effect (Emax) was 383%.

As for `CS(C)(=O)=Nc1ccc(-c2ccc(-c3nc4cc(O[C@@H]5CC[C@@H](CO)OC5)[nH]c4cc3F)cc2)cc1` [Compound I-1-06], the EC150 amounted to 19 nM and the Emax was 263%.

`COC(=O)N[C@H]1CC[C@H](c2ccc(-c3nc4cc(O[C@@H]5CO[C@H]6[C@@H]5OC[C@H]6O)[nH]c4cc3F)cc2)CC1` [Compound I-1-39]: the EC150 came to 13 nM and the Emax worked out at 552%.

For `CP(C)(=O)c1ccc(-c2ccc(-c3nc4cc(O[C@@H]5CO[C@H](CO)C5(F)F)[nH]c4cc3F)cc2)cc1` [Compound I-2-89], the EC150 is on record as 0.94 nM and the Emax was 556%.

As for `CNC(=O)CCOc1ccc(-c2ccc(-c3nc4cc(O[C@@H]5CO[C@H]6[C@@H]5OC[C@H]6O)[nH]c4cc3F)cc2)cc1` [Compound I-2-54], the EC150 is on record as 1.7 nM and the Emax turned out to be 633%.

`CS(=O)(=O)c1ccc(-c2ccc(-c3nc4cc(O[C@@H]5CO[C@H](CO)C5)[nH]c4cc3F)cc2)cc1` [Compound I-2-79]: the EC150 stood at 0.69 nM and the maximal effect (Emax) was determined as 591%.
